According to paper PMC10443802, “Targeting a xenobiotic transporter to ameliorate vincristine-induced sensory neuropathy” (JCI Insight, 2023):
Where “and” joins values, the source holds several entries; their conditions need not be identical. Equal entries are not always repeated.

How the values were obtained:
mOATP1B2 = target: T1, mOATP1B2 (Mus musculus, UniProt Q9JJL3); experiment: Inhibition of vincristine uptake in HEK293 cells overexpressing mOATP1B2; format: cell-based; conditions: HEK293 mOATP1B2; inhibitor 15 min pre-treatment
T1 sequence (Q9JJL3 1-689): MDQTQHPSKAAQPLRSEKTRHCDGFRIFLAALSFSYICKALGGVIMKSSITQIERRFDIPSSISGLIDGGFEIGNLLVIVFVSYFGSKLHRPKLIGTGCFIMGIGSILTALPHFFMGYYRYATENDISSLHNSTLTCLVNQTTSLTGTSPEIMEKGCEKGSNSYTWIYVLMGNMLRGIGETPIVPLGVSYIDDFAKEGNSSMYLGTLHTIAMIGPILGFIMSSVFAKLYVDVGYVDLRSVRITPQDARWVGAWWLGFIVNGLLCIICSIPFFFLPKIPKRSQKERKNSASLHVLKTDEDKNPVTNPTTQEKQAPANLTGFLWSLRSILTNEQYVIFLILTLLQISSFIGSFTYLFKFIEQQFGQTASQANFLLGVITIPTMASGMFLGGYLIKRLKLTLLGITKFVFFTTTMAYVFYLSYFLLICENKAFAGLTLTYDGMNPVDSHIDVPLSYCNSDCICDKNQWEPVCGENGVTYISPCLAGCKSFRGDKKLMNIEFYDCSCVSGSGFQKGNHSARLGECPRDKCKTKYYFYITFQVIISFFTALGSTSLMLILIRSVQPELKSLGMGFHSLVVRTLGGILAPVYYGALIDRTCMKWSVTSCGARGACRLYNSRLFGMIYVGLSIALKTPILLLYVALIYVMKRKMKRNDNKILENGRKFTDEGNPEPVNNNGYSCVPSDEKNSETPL

mice [1] = system: mice
DRG neurons = experiment: DRG morphology and morphometry (neuron cell area); format: in vivo, mouse
L1210 = conditions: vincristine 1 μM, 30 min, nilotinib 10 μM
Text: (A) Gene expression of the OATP1B2 gene in L1210 and P388D1 murine leukemia cells
normalized to total protein levels. All data presented represent the mean (bars) ± SEM (error bars).

mice [2] = experiment: Thermal hyperalgesia, Hargreaves test (paw withdrawal latency)
[3] = Vincristine accumulation in DRG and liver (tissue to plasma AUC ratio)
Method: injection at a dose of 1 mg/kg. Whole blood samples were collected 0.08, 0.25, 0.5, 1, and 4 h, and livers were collected at the final time point.
specimens were stored at -80°C until further processing.
stainless steel bead (Qiagen) and processed for 4 min at 40 Hz. Finally, the beads were removed, and the homogenized samples were stored at -80°C until analysis by LC-MS/MS.
Pharmacokinetic parameters were calculated by non -compartmental analysis using Phoenix WinNonlin version 8.0 (Certara). Peak plasma concentration (C max) was determined by visual inspection of the data from the concentration-time curves. The linear trapezoidal rule was used to obtain the area under the plasma concentration-time curve (AUC), and drug levels in tissues were corrected for
Quantiva triple quadrupole mass spectrometer from Thermo Fisher Scientific was used for LC-MS/MS
analysis. An Accucore aQ column (150 × 2.1 mm, dp = 2.6 μm, Thermo Fisher Scientific) was protected
volume was 5.0 μL. The temperature of the autosampler rack was 4°C, and the temperature of the
column was maintained at 50°C. Mobile phase A consisted of water with 0.1% (v/v) formic acid and
mobile phase B consisted of acetonitrile: methanol (1:1) with 0.1% (v/v) formic acid. The total run time […]
Precursor molecular ions and product ions were recorded for confirmation and
quantification was 5 ng/mL. […]

mice [4] = experiment: Nerve conduction studies (sciatic/digital and caudal nerve action potential amplitude and conduction velocity)
rOATP1A5 = rOATP1A5 (Rattus norvegicus, UniProt O88397); experiment: Vincristine uptake screen, HeLa cells overexpressing rOATP1A5; format: in vitro ADME
Sequence of rOATP1A5 (O88397 whole entry): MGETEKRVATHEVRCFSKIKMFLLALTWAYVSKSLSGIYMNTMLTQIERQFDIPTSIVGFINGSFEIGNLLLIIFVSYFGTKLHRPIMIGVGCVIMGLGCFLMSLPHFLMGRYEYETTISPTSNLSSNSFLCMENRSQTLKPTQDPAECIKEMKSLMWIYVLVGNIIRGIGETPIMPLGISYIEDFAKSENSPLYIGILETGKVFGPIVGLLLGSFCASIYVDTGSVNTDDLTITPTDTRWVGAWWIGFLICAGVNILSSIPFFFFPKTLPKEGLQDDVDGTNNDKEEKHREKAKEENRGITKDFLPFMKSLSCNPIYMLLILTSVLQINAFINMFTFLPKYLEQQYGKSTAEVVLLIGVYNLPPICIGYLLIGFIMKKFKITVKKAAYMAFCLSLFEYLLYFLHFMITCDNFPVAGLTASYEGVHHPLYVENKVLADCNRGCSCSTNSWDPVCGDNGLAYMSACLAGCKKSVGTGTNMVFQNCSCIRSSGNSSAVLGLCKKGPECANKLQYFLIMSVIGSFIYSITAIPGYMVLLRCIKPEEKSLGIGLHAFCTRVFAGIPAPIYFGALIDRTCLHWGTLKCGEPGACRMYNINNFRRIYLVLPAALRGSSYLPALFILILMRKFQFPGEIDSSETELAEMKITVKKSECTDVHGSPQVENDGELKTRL
Method: Relative uptake is expressed as percentage change compared with empty vector controls (n = 4–14 per group). […] Human OATP1B1 and OATP1B3 transporter–overexpressed cells were used as positive controls; empty vector controls were used as the negative control. […] Mechanical allodynia (C), thermal hyperalgesia (D), and sciatic nerve maximal action potential amplitudes (E) are expressed as percentage change relative to baseline values (n = 6–8 per group). Statistical analysis was performed using a 2-way ANOVA with Bonferroni’s post hoc test. **P < 0.01, ***P < 0.001, ****P < 0.0001, compared with baseline values. […] Data are shown as mean ± SEM. […]
transfected with transporters of interest, including hOAT1, hOAT3, hOAT4, hOATP1A2, hOATP3A1, hOATP4A1, hOATP5A1, hOATP1C1, hOATP1B1, hOATP1B3, hOATP2B1, hOCT1, hOCT2, hOCTN1, hOCTN2, hASBT, hNTCP, hNPT1, hMATE1, hOSTα/β, hPEPT1, hPEPT2, rOatp1a1, rOatp1a4, rOatp1a5, rOatp1b2, rNtcp, rAsbt, rOat1, and rOct1. Cells were transfected with expression plasmid or vector control lacking any insert using Lipofectin reagent (Invitrogen). Sixteen hours thereafter, cells were washed with transport media (OPTIMEM, Invitrogen) and treated with radiolabeled drug. […] The cellular radioactivity was quantified by liquid scintillation counting as described above. […]

HL-60 = experiment: Cytotoxicity of vincristine with or without nilotinib, MTT assay, HL-60; format: cell-based, human; conditions: individual replicates
patients with cancer = conditions: cited from earlier work
[5] = WT mice, nilotinib 100 mg/kg p.o. 30 min before each vincristine 1 mg/kg, 4 weeks
[6] = OATP1B2(-/-) mice + Nilotinib, Baseline
[7] = OATP1B2(-/-) mice + Nilotinib, Week 4
[8] = Wild-type mice + Nilotinib, Baseline
[9] = Wild-type mice + Nilotinib, Week 4
[10] = KO (OATP1B2-/-) mice, vincristine 1 mg/kg weekly i.p. + vehicle pretreatment, 4 weeks
[11] = OATP1B2(-/-) mice, vincristine 1 mg/kg weekly, Week 4

Cc1cn(-c2cc(NC(=O)c3ccc(C)c(Nc4nccc(-c5cccnc5)n4)c3)cc(C(F)(F)F)c2)cn1 [Nilotinib, nilotinib]
Vincristine uptake (% of vehicle) (mOATP1B2): 73.0702 % of vehicle and 58.7366 % of vehicle and 55.2034 % of vehicle and 63.6149 % of vehicle and 58.7604 % of vehicle and 51.7599 % of vehicle
Protection against vincristine-associated changes in mechanical allodynia, thermal hyperalgesia and sciatic nerve maximal AMP (mice [1]; 100 mg/kg orally 30 minutes before each of 4 vincristine doses of 1 mg/kg): effectively protected against treatment-associated changes
Cell area changes (%Δ from baseline) (DRG neurons; OATP1B2(-/-) mice + Nilotinib): 0.695% and -1.012% and -0.86%
Cell area changes (%Δ from baseline) (DRG neurons; Wild-type mice + Nilotinib): 0.351% and -0.994% and -0.034%
Prevention of vincristine-induced reduction in cell size of DRG neurons (DRG neurons; nilotinib 100 mg/kg p.o. pretreatment): could be prevented by pretreatment with nilotinib
Influence on uptake of vincristine (L1210): did not influence the uptake of vincristine
Paw withdrawal latency (%Δ from baseline) (mice [2]; KO (OATP1B2-/-) mice, nilotinib 100 mg/kg p.o. 30 min before each vincristine 1 mg/kg, 4 weeks): 81.1 %Δ from baseline and 88.2 %Δ from baseline and 119.5 %Δ from baseline and 100.4 %Δ from baseline and 93.8 %Δ from baseline and 69.5 %Δ from baseline
Paw withdrawal latency (%Δ from baseline) (mice [2]; [5]): 137.5 %Δ from baseline and 110.5 %Δ from baseline and 107.4 %Δ from baseline and 126 %Δ from baseline and 95.3 %Δ from baseline and 92.7 %Δ from baseline
Influence of pretreatment on accumulation of vincristine in whole DRG samples ([3]; nilotinib 100 mg/kg, vincristine 1 mg/kg): significantly diminished by nilotinib
Caudal nerve amplitude (mice [4]; [6]): 95.6% and 93.7% and 108.6% and 106% and 98.1%
Caudal nerve velocity (mice [4]; [6]): 102.8% and 100.9% and 101.1% and 98% and 97.3%
Sciatic nerve amplitude (mice [4]; [6]): 114.4% and 121.2% and 118.7% and 82.8% and 93.6% and 69.3%
Sciatic nerve velocity (mice [4]; [6]): 95.7% and 106.4% and 97.8% and 107.3% and 98.7% and 94.1%
Caudal nerve amplitude (mice [4]; [7]): 89.3% and 94% and 95.6% and 104.4% and 86.9%
Caudal nerve velocity (mice [4]; [7]): 97.1% and 98.5% and 95% and 100.3% and 98.1% and 98.7%
Sciatic nerve velocity (mice [4]; [7]): 92.3% and 108.6% and 101.5% and 100.5% and 93.7% and 102.8%
Sciatic nerve amplitude (mice [4]; [5]): 108.6 %Δ from baseline and 88.8 %Δ from baseline and 77.9 %Δ from baseline and 89.5 %Δ from baseline and 98.8 %Δ from baseline and 89.1 %Δ from baseline
Caudal nerve amplitude (mice [4]; [8]): 120.6% and 88.2% and 115.9% and 89.2% and 91.2% and 94.8%
Caudal nerve velocity (mice [4]; [8]): 98.2% and 90.4% and 108% and 104.2% and 102% and 97.3%
Sciatic nerve amplitude (mice [4]; [8]): 97.8% and 93% and 117% and 84.6% and 113.5% and 94%
Sciatic nerve velocity (mice [4]; [8]): 102.2% and 108.4% and 96.7% and 95.6% and 94.8%
Caudal nerve amplitude (mice [4]; [9]): 63.6% and 79.9% and 91.5% and 110.8% and 56.5% and 79.7%
Caudal nerve velocity (mice [4]; [9]): 92.7% and 93.3% and 98.1% and 103.4% and 110.3% and 95.5%
Sciatic nerve amplitude (mice [4]; [9]): 89.1% and 108.6% and 88.8% and 77.9% and 89.5% and 98.8%
Sciatic nerve velocity (mice [4]; [9]): 101.8% and 112.7% and 95.6% and 97.9% and 93.4% and 98.9%

CC[C@]1(O)C[C@H]2CN(CCc3c([nH]c4ccccc34)[C@@](C(=O)OC)(c3cc4c(cc3OC)N(C=O)[C@H]3[C@@](O)(C(=O)OC)[C@H](OC(C)=O)[C@]5(CC)C=CCN6CC[C@]43[C@@H]65)C2)C1 [Vincristine, vincristine]
Vincristine uptake (% of vector control) (rOATP1A5): 107.00 % of vector control and 77.00 % of vector control and 126.00 % of vector control and 95.00 % of vector control and 111.00 % of vector control and 145.00 % of vector control and 98.00 % of vector control
Protection against treatment-related mechanical allodynia by OATP1B2 deficiency (mice [1]; mouse, in vivo): protection against treatment-related mechanical allodynia was only observed
IC50 (HL-60; HL-60 cells, vincristine alone): 9.13 nM and 3.89 nM and 6.71 nM and 7.31 nM and 6.48 nM and 6.07 nM and 6.3 nM and 8.17 nM and 5.71 nM
IC50 (HL-60; Homo sapiens, HL-60, HL-60 cells, vincristine + 1μM Nilotinib): 6.98 nM
Cell size of DRG neurons (DRG neurons; WT mice, vincristine 1 mg/kg weekly, 4 weeks): reduction in cell size of DRG neurons
Incidence of sensory peripheral neurotoxicity (patients with cancer): up to 100%
Paw withdrawal latency (%Δ from baseline) (mice [2]; [10]): 115.4 %Δ from baseline and 102.8 %Δ from baseline and 99.5 %Δ from baseline and 93.2 %Δ from baseline and 105.4 %Δ from baseline and 88 %Δ from baseline and 77.4 %Δ from baseline
Paw withdrawal latency (%Δ from baseline) (mice [2]; [11]): 94.3 %Δ from baseline and 92.7 %Δ from baseline and 101.2 %Δ from baseline and 102.2 %Δ from baseline and 111.0 %Δ from baseline and 84.6 %Δ from baseline and 112.1 %Δ from baseline
Paw withdrawal latency (%Δ from baseline) (mice [2]; WT mice, vincristine 1 mg/kg weekly i.p. + vehicle pretreatment, 4 weeks): 66.8 %Δ from baseline and 70.6 %Δ from baseline and 94.2 %Δ from baseline and 54.6 %Δ from baseline and 68.3 %Δ from baseline and 64.2 %Δ from baseline and 82.5 %Δ from baseline
Paw withdrawal latency (%Δ from baseline) (mice [2]; Wild-type mice, vincristine 1 mg/kg weekly, Week 4): 61.8 %Δ from baseline and 39.1 %Δ from baseline and 56.0 %Δ from baseline and 42.8 %Δ from baseline and 56.3 %Δ from baseline and 55.6 %Δ from baseline
Uptake of vincristine in liver and whole DRG samples ([3]; OATP1B2-deficient vs WT mice, LC/MS/MS or MALDI-MS imaging): decreased uptake of vincristine
Sciatic nerve amplitude (mice [4]; [10]): 107.5 %Δ from baseline and 81.9 %Δ from baseline and 90.9 %Δ from baseline and 97.4 %Δ from baseline and 87.3 %Δ from baseline and 91.9 %Δ from baseline and 109.9 %Δ from baseline
Sciatic nerve amplitude (mice [4]; [11]): 90.9 %Δ from baseline and 97.4 %Δ from baseline and 87.3 %Δ from baseline and 91.9 %Δ from baseline and 109.9 %Δ from baseline and 107.5 %Δ from baseline and 81.9 %Δ from baseline
